# Laboratory results published in US4965280A, “Antifungal carbinols” (E. I. Du Pont de Nemours and Company, priority 1989, dated 1990).
# Columns and labels:
# Assay in all cases: Test E
# [1] = system: PARK WHEAT; assay type: in vivo, Triticum aestivum cv. Park
# [2] = system: BONANZA BARLEY; assay type: in vivo, Hordeum vulgare cv. Bonanza
# [3] = system: LAMBSQUARTER; assay type: in vivo, Chenopodium album
# [4] = system: KOCHIA; assay type: in vivo, Kochia scoparia
# [5] = system: REDROOT PIGWEED; assay type: in vivo, Amaranthus retroflexus
# [6] = system: PERSN SPEEDWELL; assay type: in vivo, Veronica persica
# [7] = system: MUSTARD SPP.; assay type: in vivo, Brassica spp.
# [8] = system: ITALN. RYEGRASS; assay type: in vivo, Lolium multiflorum
# [9] = system: GREEN FOXTAIL; assay type: in vivo, Setaria viridis
# [10] = system: WILD OATS; assay type: in vivo, Avena fatua
smiles,measurement,setting,value
"C=C(c1ccccc1)C(O)(Cn1cncn1)c1ccc(F)cc1F (stereo not drawn) [Example 52, 2-(2,4-Difluorophenyl)-3-phenyl-1-(1H-1,2,4-triazol-1-yl)-3-buten-2-ol]",plant response,[1]; POSTEMERGENCE 0064 GM/HA,30%
same,plant response,[1]; POSTEMERGENCE 0125 GM/HA,30%
same,plant response,[1]; POSTEMERGENCE 0250 GM/HA,40%
same,plant response,[1]; POSTEMERGENCE 0500 GM/HA,50%
same,plant response,[1]; PREEMERGENCE 0250 GM/HA,70%
same,plant response,[2]; POSTEMERGENCE 0064 GM/HA,0%
same,plant response,[2]; POSTEMERGENCE 0125 GM/HA,20%
same,plant response,[2]; POSTEMERGENCE 0250 GM/HA,20%
same,plant response,[2]; POSTEMERGENCE 0500 GM/HA,40%
same,plant response,[2]; PREEMERGENCE 0250 GM/HA,100%
same,plant response,[3]; POSTEMERGENCE 0064 GM/HA,0%
same,plant response,[3]; POSTEMERGENCE 0125 GM/HA,0%
same,plant response,[3]; POSTEMERGENCE 0250 GM/HA,0%
same,plant response,[3]; POSTEMERGENCE 0500 GM/HA,10%
same,plant response,[3]; PREEMERGENCE 0250 GM/HA,100%
same,plant response,[4]; POSTEMERGENCE 0064 GM/HA,0%
same,plant response,[4]; POSTEMERGENCE 0125 GM/HA,0%
same,plant response,[4]; POSTEMERGENCE 0250 GM/HA,0%
same,plant response,[4]; POSTEMERGENCE 0500 GM/HA,70%
same,plant response,[4]; PREEMERGENCE 0250 GM/HA,0%
same,plant response,[5]; POSTEMERGENCE 0064 GM/HA,0%
same,plant response,[5]; POSTEMERGENCE 0125 GM/HA,50%
same,plant response,[5]; POSTEMERGENCE 0250 GM/HA,90%
same,plant response,[5]; POSTEMERGENCE 0500 GM/HA,90%
same,plant response,[5]; PREEMERGENCE 0250 GM/HA,100%
same,plant response,[6]; POSTEMERGENCE 0064 GM/HA,40%
same,plant response,[6]; POSTEMERGENCE 0125 GM/HA,30%
same,plant response,[6]; POSTEMERGENCE 0250 GM/HA,60%
same,plant response,[6]; POSTEMERGENCE 0500 GM/HA,90%
same,plant response,[6]; PREEMERGENCE 0250 GM/HA,100%
same,plant response,[7]; POSTEMERGENCE 0064 GM/HA,0%
same,plant response,[7]; POSTEMERGENCE 0125 GM/HA,0%
same,plant response,[7]; POSTEMERGENCE 0250 GM/HA,20%
same,plant response,[7]; POSTEMERGENCE 0500 GM/HA,50%
same,plant response,[7]; PREEMERGENCE 0250 GM/HA,50%
same,plant response,[8]; POSTEMERGENCE 0064 GM/HA,0%
same,plant response,[8]; POSTEMERGENCE 0125 GM/HA,20%
same,plant response,[8]; POSTEMERGENCE 0250 GM/HA,50%
same,plant response,[8]; POSTEMERGENCE 0500 GM/HA,80%
same,plant response,[8]; PREEMERGENCE 0250 GM/HA,70%
same,plant response,[9]; POSTEMERGENCE 0064 GM/HA,0%
same,plant response,[9]; POSTEMERGENCE 0125 GM/HA,0%
same,plant response,[9]; POSTEMERGENCE 0250 GM/HA,40%
same,plant response,[9]; POSTEMERGENCE 0500 GM/HA,75%
same,plant response,[9]; PREEMERGENCE 0250 GM/HA,100%
same,plant response,[10]; POSTEMERGENCE 0064 GM/HA,0%
same,plant response,[10]; POSTEMERGENCE 0125 GM/HA,0%
same,plant response,[10]; POSTEMERGENCE 0250 GM/HA,20%
same,plant response,[10]; POSTEMERGENCE 0500 GM/HA,30%
same,plant response,[10]; PREEMERGENCE 0250 GM/HA,70%
C=C(c1ccc(Cl)cc1Cl)C(O)(Cn1cncn1)c1ccccc1F (stereo not drawn) [Example 107],plant response,[1]; PREEMERGENCE 0250 GM/HA,30%
same,plant response,[2]; PREEMERGENCE 0250 GM/HA,80%
same,plant response,[3]; PREEMERGENCE 0250 GM/HA,90%
same,plant response,[4]; PREEMERGENCE 0250 GM/HA,0%
same,plant response,[5]; PREEMERGENCE 0250 GM/HA,100%
same,plant response,[6]; PREEMERGENCE 0250 GM/HA,100%
same,plant response,[7]; PREEMERGENCE 0250 GM/HA,20%
same,plant response,[8]; PREEMERGENCE 0250 GM/HA,0%
same,plant response,[9]; PREEMERGENCE 0250 GM/HA,100%
same,plant response,[10]; PREEMERGENCE 0250 GM/HA,0%
